Results published in patent US20160366888A1, “ENVIRONMENTALLY FRIENDLY FORMULATIONS FOR BI-COMPONENT HETEROCYCLIC SCHIFF BASE TEXTILE FINISHES” (Government of the United States as Represented by the …, priority 2013, published 2016).

Tests used:
[1] = test system: B. subtilis; experiment: Antimicrobial activity (zone of inhibition) of treated cotton fabric; assay type: cell-based; settings: aqueous solution applied to cotton fabric; observation over all plates
From the text: (§1) Each aqueous solution prepared and applied to cotton fabric and tested for antimicrobial activity.
(§2) In Table 2, below, “5+” represents a zone of inhibition ranging 41 mm to 50 mm; “4+” represents a zone of 31 mm to 40 mm; “3+” represents a zone of 21 mm to 30 mm; “2+” represents a zone of 11 mm to 20 mm; “1+” represents a zone of 1 mm to 10 mm; and “−” represents no antimicrobial activity noted.
(§3) The American Association of Textile Chemists and Colorists (AATCC) test method 147, Antibacterial Assessment of Textile Materials was used to qualitatively test the biocidal efficacy of pretreatment solutions according to an embodiment of the present invention. Test material was aseptically transferred directly onto the surface of an inoculated nutrient agar slurry. After a specified incubation contact time, the test material was removed and any growth, or lack thereof, beneath the test material surface is recorded.

[2] = test system: S. aureus; experiment: as above; assay type: cell-based; settings: aqueous solution applied to cotton fabric; observation over all plates
From the text: as §1, §2, §3

| SMILES | clearing of plates in words, B. subtilis [1] | clearing of plates in words, S. aureus [2] |
| --- | --- | --- |
| Oc1cccc2cccnc12 [8HQ, 8-hydroxyquinoline] | cleared plates 2 | – |
| O=S(=O)(O)O.Oc1cccc2cccnc12.Oc1cccc2cccnc12 [Quinolinol salt hemisulfate, 8-HQ hemisulfate] | – | Cleared all of |
